The term IC50 denotes the concentration that gives 50% inhibition.

In the test the test system is HBsAg. As to the kind of experiment: microbe, parasite or virus in culture. To be noted: Hepatitis B virus, HepG2.2.15, read-out: IC50 (HBsAg secretion reduced by 50% compared to the no drug control).

Procedure: HepG2.2.15 cells (Acs et al. Proc Natl Acad Sci USA, 84, (1987), 4641-4), a constitutively HBV-expressing cell line were cultured in DMEM+Glutamax-I medium (Invitrogen, Carlsbad, Calif., USA), supplemented with 10% fetal bovine serum (Invitrogen) and G418 (Invitrogen) at a final concentration of 200 mg/L and maintained in 5% CO2 at 37° C.
HepG2.2.15 cells were seeded in duplicate into white, 96-well plates at 1.5×10^4 cells/well. The cells were treated with a three-fold serial dilution series of the compounds in DMSO. The final DMSO concentration in all wells was 1% and DMSO was used as no drug control.
The HBsAg chemiluminescence immunoassay (CLIA) kit (Autobio Diagnostics Co., Zhengzhou, China, Catalog number: CL0310-2) was used to measure the levels of secreted HBV antigens semi-quantitatively. For the detection 50 μL/well culture supernatant was used and HBsAg was quantified using HBsAg chemiluminescence immunoassay (CLIA) kit (Autobio Diagnostics Co., Zhengzhou, China, Catalog number: CL0310-2), 50 μL of the supernatant was transferred to the CLIA assay plate and 50 μL of enzyme conjugate reagent was added into each well. The plates were sealed and gently agitated for 1 hour at room temperature. The supernatant-enzyme-mixture was discarded and wells were washed 6 times with 300 μL of PBS. The residual liquid was removed by plating the CLIA plate right side down on absorbent tissue paper. 25 μL of substrates A and B were added to each well. Luminance was measured using a luminometer (Mithras LB 940 Multimode Microplate Reader) after 10 minutes incubation. Dose-response curves were generated and the IC50 value was extrapolated by using the E-WorkBook Suite (ID Business Solutions Ltd., Guildford, UK). The IC50 was defined as the compound concentration (or conditioned media log dilution) at which HBsAg secretion was reduced by 50% compared to the no drug control.

As for `COCCCOc1cc2c(cc1OC)-c1cc(=O)c(C(=O)O)cn1C(c1ccccc1C)C2` (stereo not shown) [Example 10, 10-methoxy-9-(3-methoxypropoxy)-6-(o-tolyl)-2-oxo-6,7-dihydrobenzo[a]quinolizine-3-carboxylic Acid], the IC50 was determined as 10 nM. As for `COc1cc2c(cc1OCC(C)C)CC(c1cccs1)n1cc(C(=O)O)c(=O)cc1-2` (stereo not shown) [Example 14, 9-isobutoxy-10-methoxy-2-oxo-6-(2-thienyl)-6,7-dihydrobenzo[a]quinolizine-3-carboxylic Acid], the 50% inhibitory concentration (IC50) stood at 2 nM. The same measure for `COc1cc2c(cc1OCCCCCCNS(C)(=O)=O)CC(c1cccs1)n1cc(C(=O)O)c(=O)cc1-2` (stereo not shown) [Example 24, 9-[6-(methanesulfonamido)hexoxy]-10-methoxy-2-oxo-6-(2-thienyl)-6,7-dihydrobenzo[a]quinolizine-3-carboxylic Acid]: 10 nM. Turning to `COc1cc2c(cc1OCCCn1cccn1)CC(c1cccs1)n1cc(C(=O)O)c(=O)cc1-2` (stereo not shown) [Example 16, 10-methoxy-2-oxo-9-(3-pyrazol-1-ylpropoxy)-6-(2-thienyl)-6,7-dihydrobenzo[a]quinolizine-3-carboxylic Acid], the IC50 is 9 nM.

Take `COc1cc2c(cc1OCCCSC)CC(c1cccs1)n1cc(C(=O)O)c(=O)cc1-2` (stereo not shown) [Example 31, 10-methoxy-9-(3-methylsulfanylpropoxy)-2-oxo-6-(2-thienyl)-6,7-dihydrobenzo[a]quinolizine-3-carboxylic Acid]: the IC50 was found to be 4 nM. The result for `COc1cc2c(cc1OCCCCCCNC(C)=O)CC(c1cccs1)n1cc(C(=O)O)c(=O)cc1-2` (stereo not shown) [Example 23, 9-(6-acetamidohexoxy)-10-methoxy-2-oxo-6-(2-thienyl)-6,7-dihydrobenzo[a]quinolizine-3-carboxylic Acid] reads 18 nM; that for `COc1cc2c(cc1OCCCCCCNC(=O)OC(C)(C)C)CC(c1cccs1)n1cc(C(=O)O)c(=O)cc1-2` (stereo not shown) [Example 21, 9-[6-(tert-butoxycarbonylamino)hexoxy]-10-methoxy-2-oxo-6-(2-thienyl)-6,7-dihydrobenzo[a]quinolizine-3-carboxylic Acid], 6 nM; that for `COCCCOc1cc2c(cc1Cl)-c1cc(=O)c(C(=O)O)cn1C(c1cc3ccccc3s1)C2` (stereo not shown) [Example 37, 6-(benzothiophen-2-yl)-10-chloro-9-(3-methoxypropoxy)-2-oxo-6,7-dihydrobenzo[a]quinolizine-3-carboxylic Acid], 4420 nM.

For `COc1cc2c(cc1OCCN1CCCC1=O)CC(c1cccs1)n1cc(C(=O)O)c(=O)cc1-2` (stereo not shown) [Example 20, 10-methoxy-2-oxo-9-[2-(2-oxopyrrolidin-1-yl)ethoxy]-6-(2-thienyl)-6,7-dihydrobenzo[a]quinolizine-3-carboxylic Acid], the IC50 was found to be 37 nM.

`COc1ccc2c(c1C)CC(c1cccs1)n1cc(C(=O)O)c(=O)cc1-2` (stereo not shown) [Example 11, 9-methoxy-8-methyl-2-oxo-6-(2-thienyl)-6,7-dihydrobenzo[a]quinolizine-3-carboxylic Acid]: the IC50 was 170 nM. `COc1cc2c(cc1OCCCO)CC(c1cccs1)n1cc(C(=O)O)c(=O)cc1-2` (stereo not shown) [Example 17, 9-(3-hydroxypropoxy)-10-methoxy-2-oxo-6-(2-thienyl)-6,7-dihydrobenzo[a]quinolizine-3-carboxylic Acid]: the IC50 turned out to be 18 nM. Consider `COc1cc2c(cc1OCC(C)(C)CO)CC(c1cccs1)n1cc(C(=O)O)c(=O)cc1-2` (stereo not shown) [Example 26, 9-(3-hydroxy-2,2-dimethyl-propoxy)-10-methoxy-2-oxo-6-(2-thienyl)-6,7-dihydrobenzo[a]quinolizine-3-carboxylic Acid], for which the half-inhibitory concentration (IC50) came out at 4 nM. In the case of `COc1cc2c(cc1OCCCN1CCOCC1)CC(c1cccs1)n1cc(C(=O)O)c(=O)cc1-2` (stereo not shown) [Example 28, 10-methoxy-9-(3-morpholinopropoxy)-2-oxo-6-(2-thienyl)-6,7-dihydrobenzo[a]quinolizine-3-carboxylate], the IC50 is 10 nM.

(Values after US10093671B2, “2-oxo-6,7-dihydrobenzo[a]quinolizine-3-carboxylic acid derivatives for the treatment and prophylaxis of hepatitis B virus infection” (Hoffmann-La Roche Inc., priority 2015, dated 2018).)
